Changes are numbered by the printed parent chain. Where two headings read alike, the source gives them in different places.
Experiments:
[1] = target: T1, human manganese superoxide dismutase (hMn SOD) variant H30N (His 30 replaced by Asn) (Homo sapiens, UniProt P04179, H54N); test: Disproportionation of superoxide by H30N hMnSOD, stopped-flow, 20° C.; assay type: biochemical; details: pH 9.6, 20° C.
T1 construct: as a mature protein tagged with an extra Met at the amino terminus; made in house
T1 sequence (P04179 25-222 H54N): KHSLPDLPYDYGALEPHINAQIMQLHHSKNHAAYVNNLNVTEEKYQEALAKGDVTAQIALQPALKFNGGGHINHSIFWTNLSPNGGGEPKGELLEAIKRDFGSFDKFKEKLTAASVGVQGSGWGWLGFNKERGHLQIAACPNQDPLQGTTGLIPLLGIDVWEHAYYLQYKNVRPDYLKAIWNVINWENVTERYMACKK
Method: Experiments were based on the stabilization of KO2 in aprotic solvent and the subsequent large dilution of this solution by an aqueous solution of enzyme in a stopped-flow apparatus, as described by McClune and Fee (1978). KO2 was dissolved in a mixture of dimethyl sulfoxide and […] (2:1 by volume; Aldrich, spectrophotometric grade) with solubility of KO2 enhanced with 18-crown-6 (Valentine and Curtis, 1975). The stopped-flow spectrophotometer (Kinetic Instruments, Ann Arbor, Mich.) was capable of efficient mixing of this solution with an acqueous solution of enzyme in buffer with a dead time between 1.5 and 2.0 ms. One drive syringe (capacity 50 μl) contained the aprotic solution of O2. This was diluted fifty-fold by the contents of a second syringe (capacity 2.5 ml) which contained enzyme, EDTA, and buffer. The decay of superoxide in initial velocity experiments and progress curves was monitored by its absorption at 250 to 300 nm. Stopped-flow experiments were carried out at […]. Four or more kinetic traces were averaged to reduce noise. Steady-state parameters were obtained by least-squares analysis of such data (Leatherbarrow (1987) "Enzfitter: a nonlinear regression data analysis program for the IBM PC" Elsevier BIOSOFT, Cambridge).
In the present study, several novel hMnSOD proteins containing substitutions of His 30 (referring to the amino acid sequence of SEQ ID NO:2) were prepared by PCR site directed mutagenesis and purified by column chromatography, as described in the Materials and Methods section above, and as also described by Hsu et al. (1996) J. Biol. Chem. 271: 1768; and Hsieh et al. (1998) Biochemistry 37: 4731. In particular, His 30 was substituted with each of Ala, Asn, Ser and Gln. The resulting novel hMnSOD proteins containing a His 30 substitution were then assayed for enzymatic activity and product inhibition at 20° C. by measuring the absorbance of superoxide at 250 nm using stopped-flow spectrophotometry, as described above in the Materials and Methods section. […]

[2] = target: T2, human manganese superoxide dismutase (hMn SOD) variant Q143N (Gln 143 replaced by Asn), SEQ ID NO:3 (Homo sapiens, UniProt P04179, Q167N); test: Decay of superoxide catalyzed by Q143N hMnSOD, pulse radiolysis; assay type: biochemical; details: FIG. 1; first-order fit, 35 μM enzyme, pH 9.6, 20° C.
T2 construct: as a mature protein tagged with an extra Met at the amino terminus; made in house; host or cells: E. coli QC774 (SodA/SodB mutant), pTrc99A
T2 sequence (P04179 25-222 Q167N): T1 sequence (P04179 25-222 H54N) with N30H, Q143N
Method: The solutions contained 0.5 μM wild-type MnSOD or 35 μM Q143N hMnSOD and 50 μM EDTA, 10 mM sodium formate, and 2.0 mM sodium pyrophosphate and pH 9.6 and 20° C. The solid line for Q143N hMnSOD is least-squares fit to a first-order process corresponding to Kcat /Km =1×10^6 M^-1 s^-1.
(§1) Experiments were carried out at the Center for Fast Kinetics Research at the University of Texas at Austin using a 4-Mev van der Graaff accelerator. A single high-dose electron pulse was used to generate superoxide radical anions from oxygen in acqueous solutions containing 10 mM sodium formate as hydroxyl radical scavenger (Schwartz, 1981) and 50 μM EDTA in addition to buffer and enzyme. All pulse radiolysis experiments were carried out at 20 ° C. The dismutation of O2^- was followed spectrophotometrically from its absorbance at 250 nm (ε=2000M^1 cm^1, Rabani and Nielson, 1969) with a path length of 2.5 cm. Progress curves for each set of 6 to 9 experiments were averaged. Exposure to ultraviolet radiation was minimized by opening a mechanical shutter a fraction of a second before each pulse.

[3] = target: T3, human manganese superoxide dismutase (hMn SOD), wild type, SEQ ID NO:2 (Homo sapiens, UniProt P04179); details: cited from earlier work
T3 construct: where it is then cleaved off leaving the mature protein
T3 sequence (P04179 25-222): T1 sequence (P04179 25-222 H54N) with N30H

[4] = target: T3, human manganese superoxide dismutase (hMn SOD), wild type, SEQ ID NO:2; test: Decay of superoxide catalyzed by wild-type hMnSOD, pulse radiolysis; assay type: biochemical; details: obtained from Table 3 data and eqs 5-9 of Bull et al. (1991)
Method: as §1

[5] = Table 1, pulse radiolysis, 20° C., pH 9.6 (Hsu et al., 1996)
[6] = Table 2, KINSIM fit of FIG. 8 scheme to pulse radiolysis data, 20° C., pH 9.6
[7] = Table 3, KINSIM fit to pulse radiolysis data, 20° C., pH 9.6

[O]O [superoxide]
kcat ([1]; Table 4): 2.9 ms^.1
kcat /Km ([1]; Table 4): 91 μM^.1 S^.1
ko /[E] (rate constant for the zero-order region of catalysis) ([1]; Table 5): 1,300 S^.1
kcat /Km [2]: 1e+06 M⁻¹ s⁻¹
kcat [3, 5]: 40 ms^-1
kcat /km [3, 5]: 8e+08 M⁻¹ s⁻¹
k1 [3, 6]: 2e+09 M⁻¹ s⁻¹
k3 [3, 6]: 2e+09 M⁻¹ s⁻¹
k4 [3, 6]: 80000 s⁻¹
k-1 [3, 6]: 20000 s⁻¹
k-3 [3, 6]: 20000 s⁻¹
k-4 [3, 6]: 300 M⁻¹ s⁻¹
k-5 ([3]; Table 2, KINSIM fit, dead-end complex, 20° C., pH 9.6): 130 s⁻¹
k5 ([3]; Table 2, KINSIM fit, formation of dead-end complex, 20° C., pH 9.6): 20000 s⁻¹
k1 [3, 7]: 20000 s⁻¹
k3 [3, 7]: 20000 s⁻¹
k4 [3, 7]: 300 M⁻¹ s⁻¹
k5 [3, 7]: 130 s⁻¹
k-1 [3, 7]: 2e+09 M⁻¹ s⁻¹
k-3 [3, 7]: 2e+09 M⁻¹ s⁻¹
k-4 [3, 7]: 80000 s⁻¹
k-5 [3, 7]: 2 × 10^4
k2 ([3]; Tables 2 and 3, KINSIM fit of FIG. 8 scheme to pulse radiolysis data, 20° C., pH 9.6): 80000 s⁻¹
kcat /km (diffusion controlled) ([3]; approximate value): ~10^9 M^-1 s^-1
kcat /Km ([3]; pH 9.6, 20° C. (Hsu et al., 1996)): 8e+08 M⁻¹ s⁻¹
Km [4]: 50 µM

From patent US6107070A, “Human manganese superoxide dismutase proteins” (University of Florida, priority 1998, dated 2000)
